Earlier results as cited in US20080119448A1, “Methods of treating an ocular allergy with low dose dexamethasone” (priority 2006, published 2008).

Details: dexamethasone at 0.1%

## C[C@@H]1C[C@H]2[C@@H]3CCC4=CC(=O)C=C[C@]4(C)[C@@]3(F)[C@@H](O)C[C@]2(C)[C@@]1(O)C(=O)CO [dexamethasone]
  effect on intraocular pressure: increase in intraocular pressure
